“Also recorded” adds a separate entry of the source.

The subject of assay [1] is organoid cell lines ORG1 and ORG2. Nature of the assay: Carboplatin treatment of organoid cancer lines, cell viability by luminescence (Cell Titer Glow 3D). The assay is classed as cell-based, human. The conditions noted are these: patient-derived HGSC organoid lines, triplicates, FIG. 5. The procedure: Cell vialiability (y axis) was determined proportional to the strength of luminiscence signal (Cell Titer® Glow 3D Promega). […] Immunofluorescence analysis of the key structural and functional biomarkers confirmed that organoids match native tumor tissue in phenotype, e.g. PAX8 confirming Mullerean lineage, EpCAM, p53 and p16 (FIG. 4). All tested organoid cultures were matched in phenotype to the fragment of native tumor processed and stained in standard procedure which was used for clinical diagnosis. Ovarian cancer cancer organoids mostly lack central cavities in contrast to fallopian tube organoids which are built of polarized epithelial monolayers. This is expected as histological atypia and stratification are present already in the early stages of the carcinogenesis in the fallopian tube (Shaw et al 2009, Modern Pathology 22, 1135-1138). Panel sequencing of paired organoid culture and tissue confirmed that the tested organoids recapitulate cancer tissue composition also on the genomic level. Importantly cultures can be expanded to multi-well format to enable high throughput experimental set up.
Background: Cellular ATP, detected with luciferase, serves as a proxy for viable cell number.

The test system of assay [2] is ovarian cancer stem cells. Nature of the assay: Establishment of ovarian cancer organoid lines with exogenous Wnt 3a supplementation. The assay is classed as cell-based, human. As to conditions: all established lines grew in Wnt3a-negative media. The procedure:
• Adv. +++: Advanced F12 Medium+HEPES (6 ml)+Glutamax (5 ml)+5% fetal calf serum (FCS) • Adv. ++: Advanced F12 Medium+HEPES (6 ml)+Glutamax (5 ml) • Cut tissue with a scissor in small pieces and then mince further with scalpel for 3-5 minutes • Collect all fragments, incubate with 2 ml Collagenase Type 1+2 ml Collagenase type II and transfer to a 6 well plate, • Incubate fragments for 45 min at 37° C. 5% CO2, • Add 5 ml Adv +++ and transfer in to a 50 ml Falcon tube, • Vortex vigorously for 30 seconds, • Let pieces settle down, take supernatant and transfer in to a fresh tube, • Add again 5 ml Adv +++, mix with a pipette, • Let pieces settle down, take supernatant and transfer in to a fresh tube, • Centrifuge for 5 min at 400 rpm, • Discard supernatant, • Prepare 10 ml Adv +++, add 30 μl Y-27632 and 10 μl hEGF (final conc. 10 ng/ml), • Resuspend cell pellet in medium, • Seed cell in a flask, • Incubate at 5% CO2 at 37° C. and grow cells 3-5 days prior to transfer to 3D culture. […]

For the molecule `N.N.O=C([O-])C1(C(=O)[O-])CCC1.[Pt+2]` [carboplatin], the “response to carboplatin treatment (cell viability)” value in assay [1] was “differences in responsivness and kinetics; also recorded: individual patient profiles in their response”.

B1: Wnt 3a: Wnt protein, e.g. human Wnt 3a (RefSeq NP_149122) (protein, UniProt P56704 19-352, looked up)
Protein Wnt-3a: SYPIWWSLAVGPQYSSLGSQPILCASIPGLVPKQLRFCRNYVEIMPSVAEGIKIGIQECQHQFRGRRWNCTTVHDSLAIFGPVLDKATRESAFVHAIASAGVAFAVTRSCAEGTAAICGCSSRHQGSPGKGWKWGGCSEDIEFGGMVSREFADARENRPDARSAMNRHNNEAGRQAIASHMHLKCKCHGLSGSCEVKTCWWSQPDFRAIGDFLKDKYDSASEMVVEKHRESRGWVETLRPRYTYFKVPTERDLVYYEASPNFCEPNPETGSFGTRDRTCNVSSHGIDGCDLLCCGRGHNARAERRREKCRCVFHWCCYVSCQECTRVYDVHTCK
With B1, the “effect of exogenous supplementation on ovarian cancer stem cells” value in assay [2] is reported as “detrimental”.

The values above are taken from patent US12655394B2, “Ovarian cancer organoid culture” (MAX-PLANCK-GESELLSCHAFT ZUR FÖRDERUNG DER WISSENSCHAFTEN …, priority 2018, dated 2026).
